From patent US6001852A (priority 1996, dated 1999)

Assays:
zinc precipitated Aβ = experiment: Washing of zinc-aggregated synthetic Aβ on nylon membrane (anti Aβ mAb 6E10, ECL-film); format: biochemical; conditions: 2 μM in TBS, 200 μl wash; 10 ng Aβ aggregated with 25 μM ZnCl; 100% for TBS alone
Protocol: Samples of 10 ng synthetic Aβ were placed in microtitre wells and caused to aggregate by the addition of 25 μM ZnCl. The aggregates were then transferred to a 0.2 μm nylon membrane by filtration. […] The membrane was fixed, probed with the anti Aβ monoclonal antibody 6E10 and developed for exposure to ECL-film. The transmittance of the ECL-film was measured and the relative signal strength calculated based on 100% for TBS alone.

[1] = Dissolution of clioquinol in n-decane and extraction into PBS pH 7.4; format: physicochemical
Protocol: The resolubilization of amyloid aggregates by clioquinol was studied. […] The undissolved aterial was allowed to settle. […] 100 ml of the (light yellow) supernatant was agitated together with 100 ml of PBS pH 7.4 and the phases allowed to separate. The PBS (lower phase) was collected and filtered to remove the residue which formed at the phase interface upon extraction with the organic solvent.

Aβ = experiment: Solubilization of Aβ from Alzheimer's disease brain homogenates (Western blot, mAb W02); format: biochemical, human; conditions: frontal lobe neocortex homogenized in clioquinol/PBS at 100%, 10% and 1% (100%=800 nM)
Protocol: Brain specimens were obtained for which a histopathological diagnosis of Alzheimer's disease was confirmed.
The homogenates were centrifuged at 150,000 xg for thirty minutes and the supernatants collected and held on ice (fraction "S"). The pellets were subjected to an identical homogenization and centrifugation regime and the resulting supernatants again collected (fraction "P")
1 ml of each supernatant was treated with 200 μl of ice cold 10% TCA to precipitate total protein including Aβ. The resulting pellet was washed once with 100% ethanol and resuspended in 100 μl of TBS (tris 20 mM, NaCl 150 mM, pH 7.4).
7.5 μl of sample (S or P) was boiled for 5 min. with an equal volume of tris-tricine sample buffer containing 4% SDS and loaded onto a Novex pre-cast 10-20% tris-tricine gel followed by Western transfer onto nitrocellulose. […] The sensitivity of the detection system is 5-10 pg.
To validate the TCA precipitation for Aβ 1 μg of synthetic Aβ 1-40 was added to 1 ml of PBS containing 10% BSA and the solution was treated as above.

zinc-aggregated Aβ = experiment: Resolubilization of zinc-aggregated Aβ in TBS pH 7.4; format: biochemical; conditions: clioquinol added after 30 μM zinc (43% in solution with zinc alone, 95% before zinc)
Protocol: The ability of clioquinol to resolubilize zinc-aggregated Aβ was assessed. A […] solution of Aβ in TBS at a pH of 7.4 was prepared. 95% of the Aβ was maintained in a soluble state.

[2] = 1H NMR study of the interaction of vitamin B12 with clioquinol glucuronide; format: binding; conditions: 2.6 mM vitamin B12 and 10 mM clioquinol glucuronide, buffered water pH 6.5, 20° C.
Protocol: Three different solutions were prepared and their ^1 H NMR spectra were recorded in a DRX 400 MHz spectrophotometer at 20° C. Solution a) contained free vitamin B12 (hydroxycobalamin) in a concentration of 2.6 mM.
In FIG. 1 the spectra of the three solutions are presented for the aromatic region (5.5-9.8 ppm). The differences are quite small but obvious in the expansion shown of FIG. 2 and FIG. 3, respectively.

## O=C(O)CN(CCN(CC(=O)O)CC(=O)O)CC(=O)O [EDTA]
Zinc precipitated Aβ
  Relative signal strength (Aβ remaining on membrane): 66%

## Oc1c(I)cc(Cl)c2cccnc12 [clioquinol, 5-chloro-7-iodo-8 hydroxyquinoline]
[1]; 5.3 g suspended in 200 ml n-decane
  Share of clioquinol dissolved in n-decane: 2%
[1]; PBS pH 7.4 extract of decane supernatant, 1:1, assuming 2% dissolved and partitioning coefficient 1/1750
  Concentration of clioquinol in the PBS: 800 nM
Aβ
  Solubilization of Aβ: effective in promoting the solubilization of Aβ
zinc-aggregated Aβ
  Soluble Aβ: 70%

## COC(=O)[C@H]1OC(Oc2c(I)cc(Cl)c3cccnc23)[C@H](OC(C)=O)[C@@H](OC(C)=O)[C@@H]1OC(C)=O (stereo partly drawn) [methyl (5-chloro-7-iodo-quinolyl-2',3',4'-tri-o-acetyl-glucopyranosid)uronate]
[2]
  Interaction with vitamin B12 (shifted 1H NMR resonances): interaction between clioquinol glucuronide and vitamin B12
